Here are results for nine compounds from ChEMBL document CHEMBL5465560, “Selectivity Literature for EUbOPEN Chemogenomic Library” (2024).

Test [1] concerns the target Casein kinase I isoform gamma-1 (Homo sapiens) (UniProt Q9HCP0). In words: Selectivity interaction (ProQinase) EUB0000171b CSNK1G1.
For test [2], the target named is Proto-oncogene tyrosine-protein kinase Src (Homo sapiens, UniProt P12931). In words: Selectivity interaction (Kinase panel (DSF assay)) EUB0001558a SRC.
The target of test [3] is T1, Aurora kinase A (Homo sapiens) (UniProt O14965).
T1 sequence (whole entry): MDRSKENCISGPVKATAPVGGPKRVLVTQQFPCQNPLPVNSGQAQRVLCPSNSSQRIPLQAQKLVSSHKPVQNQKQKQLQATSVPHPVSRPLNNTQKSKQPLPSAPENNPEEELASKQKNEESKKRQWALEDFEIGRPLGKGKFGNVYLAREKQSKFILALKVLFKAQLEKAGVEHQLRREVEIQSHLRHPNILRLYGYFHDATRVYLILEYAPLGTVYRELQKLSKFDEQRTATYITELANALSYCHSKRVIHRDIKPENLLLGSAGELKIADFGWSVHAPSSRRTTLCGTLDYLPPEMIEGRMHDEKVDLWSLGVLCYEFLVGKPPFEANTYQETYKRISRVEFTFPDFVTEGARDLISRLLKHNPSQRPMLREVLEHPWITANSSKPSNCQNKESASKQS
In words: Selectivity interaction (KinaseProfiler screening (Millipore)) EUB0000601a STK6. The settings on record: at 3 µM.

Test [4] deals with T2, Serine/threonine-protein kinase DCLK3 (Homo sapiens) (UniProt Q9C098).
T2 sequence (whole entry): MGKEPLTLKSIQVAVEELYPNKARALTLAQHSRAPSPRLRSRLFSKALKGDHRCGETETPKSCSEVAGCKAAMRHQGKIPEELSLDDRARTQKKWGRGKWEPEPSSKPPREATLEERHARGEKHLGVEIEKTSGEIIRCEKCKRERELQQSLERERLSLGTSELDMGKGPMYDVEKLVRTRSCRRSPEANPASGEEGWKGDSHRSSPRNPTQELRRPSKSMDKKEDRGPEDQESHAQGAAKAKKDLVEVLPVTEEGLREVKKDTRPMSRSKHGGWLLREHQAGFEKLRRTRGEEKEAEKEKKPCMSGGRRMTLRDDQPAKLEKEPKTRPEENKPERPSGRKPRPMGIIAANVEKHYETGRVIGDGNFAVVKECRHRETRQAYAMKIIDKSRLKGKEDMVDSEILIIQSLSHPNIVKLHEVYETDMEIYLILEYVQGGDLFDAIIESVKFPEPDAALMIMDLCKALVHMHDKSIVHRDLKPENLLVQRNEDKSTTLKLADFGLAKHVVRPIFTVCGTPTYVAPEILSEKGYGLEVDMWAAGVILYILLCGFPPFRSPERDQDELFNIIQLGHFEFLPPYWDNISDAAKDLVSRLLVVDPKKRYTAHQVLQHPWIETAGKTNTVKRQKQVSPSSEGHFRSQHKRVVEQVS
In words: Selectivity interaction (KinomeScan (DiscoverX)) EUB0001049a DCLK3. The settings on record: at 1 µM.

Test [5] concerns the target Serine/threonine-protein kinase 24 (Homo sapiens) (UniProt Q9Y6E0). The test can be described thus: Selectivity interaction (KinomeScan (DiscoverX)) EUB0001049a STK24. The settings on record: at 1 µM.
Test [6] deals with Mitogen-activated protein kinase 1 (Homo sapiens, UniProt P28482). The test can be described thus: Selectivity interaction (KinomeScan (DiscoverX)) EUB0000666a MAPK1. Conditions: at 10 µM.
In test [7] the target is Maternal embryonic leucine zipper kinase (Homo sapiens) (UniProt Q14680). The test can be described thus: Selectivity interaction (Kinase panel (Z-LYTE Assay)) EUB0001632a MELK. The settings on record: at 10 µM.
Test [8] deals with Mitogen-activated protein kinase kinase kinase 10 (Homo sapiens) (UniProt Q02779). In words: Selectivity interaction (Kinase panel (Invitrogen)) EUB0000639a MAP3K10. Conditions: at 200 nM.
The target of test [9] is Protein kinase C theta type (Homo sapiens, UniProt Q04759). The test can be described thus: Selectivity interaction (Kinase panel (33PanQinase(R) Activity Assay)) EUB0000877a PRKCQ.
Test [10] addresses T3, Serine/threonine-protein kinase haspin (Homo sapiens) (UniProt Q8TF76).
T3 sequence (whole entry): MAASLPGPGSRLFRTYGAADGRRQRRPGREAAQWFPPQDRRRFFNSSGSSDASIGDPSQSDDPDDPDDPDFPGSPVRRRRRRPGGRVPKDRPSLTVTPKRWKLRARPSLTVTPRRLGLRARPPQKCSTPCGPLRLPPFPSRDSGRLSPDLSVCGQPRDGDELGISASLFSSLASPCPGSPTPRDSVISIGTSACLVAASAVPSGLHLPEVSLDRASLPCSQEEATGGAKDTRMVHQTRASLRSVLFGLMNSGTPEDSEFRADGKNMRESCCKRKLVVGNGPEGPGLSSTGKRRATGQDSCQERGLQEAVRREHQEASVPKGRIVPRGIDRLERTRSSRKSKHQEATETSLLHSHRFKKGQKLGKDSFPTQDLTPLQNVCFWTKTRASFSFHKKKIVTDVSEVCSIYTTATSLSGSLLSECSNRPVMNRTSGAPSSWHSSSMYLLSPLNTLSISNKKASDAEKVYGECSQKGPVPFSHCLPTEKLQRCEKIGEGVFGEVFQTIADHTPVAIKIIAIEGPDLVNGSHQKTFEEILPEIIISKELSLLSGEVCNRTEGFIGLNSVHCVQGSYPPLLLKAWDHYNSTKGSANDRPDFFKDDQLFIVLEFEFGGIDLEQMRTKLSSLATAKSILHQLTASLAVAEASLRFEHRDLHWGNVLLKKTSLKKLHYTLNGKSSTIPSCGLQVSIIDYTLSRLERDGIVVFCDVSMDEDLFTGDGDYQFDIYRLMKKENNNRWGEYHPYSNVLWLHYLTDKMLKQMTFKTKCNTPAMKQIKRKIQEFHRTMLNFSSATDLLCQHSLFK
The test can be described thus: Selectivity interaction (Kinase panel (DSF assay)) EUB0001559a GSG2.

Sequence of Casein kinase I isoform gamma-1 (Homo sapiens) (Q9HCP0 whole entry, looked up, canonical isoform): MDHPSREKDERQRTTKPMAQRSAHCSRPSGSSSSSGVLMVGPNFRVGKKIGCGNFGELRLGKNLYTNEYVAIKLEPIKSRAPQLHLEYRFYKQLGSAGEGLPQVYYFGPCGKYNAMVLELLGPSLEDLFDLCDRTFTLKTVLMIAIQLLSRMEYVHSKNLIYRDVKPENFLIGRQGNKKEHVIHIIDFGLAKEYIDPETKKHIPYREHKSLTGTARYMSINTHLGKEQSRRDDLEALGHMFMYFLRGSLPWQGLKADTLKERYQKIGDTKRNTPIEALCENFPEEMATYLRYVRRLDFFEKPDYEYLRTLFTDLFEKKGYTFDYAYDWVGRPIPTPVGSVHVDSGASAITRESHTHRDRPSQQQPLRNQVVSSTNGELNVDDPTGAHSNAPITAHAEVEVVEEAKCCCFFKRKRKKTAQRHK
Sequence of Proto-oncogene tyrosine-protein kinase Src (P12931 2-536 limits assumed): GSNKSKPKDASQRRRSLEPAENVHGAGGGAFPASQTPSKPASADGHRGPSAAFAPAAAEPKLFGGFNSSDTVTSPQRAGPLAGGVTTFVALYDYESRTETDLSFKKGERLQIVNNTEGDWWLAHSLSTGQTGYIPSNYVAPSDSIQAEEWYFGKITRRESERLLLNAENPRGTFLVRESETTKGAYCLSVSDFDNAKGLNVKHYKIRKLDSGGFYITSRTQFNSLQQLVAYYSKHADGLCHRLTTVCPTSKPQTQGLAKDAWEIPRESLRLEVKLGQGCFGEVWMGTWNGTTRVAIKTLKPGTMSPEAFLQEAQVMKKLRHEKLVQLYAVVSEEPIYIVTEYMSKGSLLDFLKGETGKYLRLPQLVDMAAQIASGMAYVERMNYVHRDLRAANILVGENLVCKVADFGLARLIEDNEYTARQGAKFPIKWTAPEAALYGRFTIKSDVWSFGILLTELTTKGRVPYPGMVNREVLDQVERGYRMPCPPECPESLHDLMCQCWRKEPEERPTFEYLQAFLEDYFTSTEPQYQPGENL
Sequence of Mitogen-activated protein kinase kinase kinase 10 (Homo sapiens) (Q02779 whole entry, looked up): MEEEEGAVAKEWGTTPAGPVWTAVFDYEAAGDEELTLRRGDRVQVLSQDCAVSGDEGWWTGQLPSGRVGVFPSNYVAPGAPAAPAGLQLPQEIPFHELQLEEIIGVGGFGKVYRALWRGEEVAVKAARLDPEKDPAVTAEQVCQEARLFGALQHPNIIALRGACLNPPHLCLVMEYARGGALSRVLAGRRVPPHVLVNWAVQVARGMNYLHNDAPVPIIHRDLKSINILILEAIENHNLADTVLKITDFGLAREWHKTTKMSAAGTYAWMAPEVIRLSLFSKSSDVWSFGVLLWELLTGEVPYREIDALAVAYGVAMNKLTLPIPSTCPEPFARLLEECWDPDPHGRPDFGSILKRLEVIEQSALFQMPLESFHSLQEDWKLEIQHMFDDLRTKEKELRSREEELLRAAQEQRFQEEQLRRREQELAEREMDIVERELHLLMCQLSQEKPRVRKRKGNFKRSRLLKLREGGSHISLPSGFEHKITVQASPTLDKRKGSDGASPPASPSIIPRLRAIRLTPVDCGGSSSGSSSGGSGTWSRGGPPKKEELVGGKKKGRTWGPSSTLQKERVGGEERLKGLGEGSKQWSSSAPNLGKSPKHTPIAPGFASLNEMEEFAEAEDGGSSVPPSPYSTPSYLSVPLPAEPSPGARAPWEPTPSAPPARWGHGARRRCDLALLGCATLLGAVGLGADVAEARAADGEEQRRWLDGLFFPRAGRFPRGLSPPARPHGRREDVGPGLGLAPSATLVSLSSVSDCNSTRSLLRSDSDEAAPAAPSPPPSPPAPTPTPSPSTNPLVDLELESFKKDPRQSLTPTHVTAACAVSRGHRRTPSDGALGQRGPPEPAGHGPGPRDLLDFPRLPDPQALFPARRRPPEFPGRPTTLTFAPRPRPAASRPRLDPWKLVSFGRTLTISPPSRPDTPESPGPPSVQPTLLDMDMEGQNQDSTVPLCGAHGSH
Sequence of Protein kinase C theta type (Q04759 whole entry): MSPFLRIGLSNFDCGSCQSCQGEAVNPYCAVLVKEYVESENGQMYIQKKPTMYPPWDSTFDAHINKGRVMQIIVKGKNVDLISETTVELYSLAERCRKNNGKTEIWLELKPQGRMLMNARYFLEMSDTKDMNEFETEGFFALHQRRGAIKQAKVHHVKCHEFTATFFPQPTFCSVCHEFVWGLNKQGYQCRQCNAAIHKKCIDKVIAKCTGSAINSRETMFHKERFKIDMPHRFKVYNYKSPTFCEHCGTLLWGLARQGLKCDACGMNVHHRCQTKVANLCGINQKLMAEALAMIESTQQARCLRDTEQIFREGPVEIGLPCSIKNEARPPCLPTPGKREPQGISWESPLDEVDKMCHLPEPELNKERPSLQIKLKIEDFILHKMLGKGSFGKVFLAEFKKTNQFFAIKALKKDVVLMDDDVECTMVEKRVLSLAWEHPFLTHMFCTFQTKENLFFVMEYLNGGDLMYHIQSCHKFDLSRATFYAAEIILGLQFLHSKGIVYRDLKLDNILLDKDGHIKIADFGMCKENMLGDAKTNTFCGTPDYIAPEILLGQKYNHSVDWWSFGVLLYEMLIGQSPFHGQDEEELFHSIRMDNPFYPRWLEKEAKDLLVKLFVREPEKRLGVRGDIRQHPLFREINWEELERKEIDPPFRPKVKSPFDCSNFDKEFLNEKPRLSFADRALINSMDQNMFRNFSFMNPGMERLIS
Sequence of Mitogen-activated protein kinase 1 (P28482 whole entry): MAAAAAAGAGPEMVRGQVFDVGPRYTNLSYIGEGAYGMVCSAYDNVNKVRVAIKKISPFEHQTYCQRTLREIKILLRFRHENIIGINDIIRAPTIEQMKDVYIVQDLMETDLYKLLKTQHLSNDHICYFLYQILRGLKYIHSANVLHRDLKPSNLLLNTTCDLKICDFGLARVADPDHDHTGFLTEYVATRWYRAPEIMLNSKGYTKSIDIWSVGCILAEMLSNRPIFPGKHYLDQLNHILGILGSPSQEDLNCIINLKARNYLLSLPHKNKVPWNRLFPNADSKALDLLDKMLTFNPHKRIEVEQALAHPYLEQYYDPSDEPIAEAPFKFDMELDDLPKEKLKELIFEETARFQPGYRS
Sequence of Maternal embryonic leucine zipper kinase (Homo sapiens) (Q14680 whole entry, looked up): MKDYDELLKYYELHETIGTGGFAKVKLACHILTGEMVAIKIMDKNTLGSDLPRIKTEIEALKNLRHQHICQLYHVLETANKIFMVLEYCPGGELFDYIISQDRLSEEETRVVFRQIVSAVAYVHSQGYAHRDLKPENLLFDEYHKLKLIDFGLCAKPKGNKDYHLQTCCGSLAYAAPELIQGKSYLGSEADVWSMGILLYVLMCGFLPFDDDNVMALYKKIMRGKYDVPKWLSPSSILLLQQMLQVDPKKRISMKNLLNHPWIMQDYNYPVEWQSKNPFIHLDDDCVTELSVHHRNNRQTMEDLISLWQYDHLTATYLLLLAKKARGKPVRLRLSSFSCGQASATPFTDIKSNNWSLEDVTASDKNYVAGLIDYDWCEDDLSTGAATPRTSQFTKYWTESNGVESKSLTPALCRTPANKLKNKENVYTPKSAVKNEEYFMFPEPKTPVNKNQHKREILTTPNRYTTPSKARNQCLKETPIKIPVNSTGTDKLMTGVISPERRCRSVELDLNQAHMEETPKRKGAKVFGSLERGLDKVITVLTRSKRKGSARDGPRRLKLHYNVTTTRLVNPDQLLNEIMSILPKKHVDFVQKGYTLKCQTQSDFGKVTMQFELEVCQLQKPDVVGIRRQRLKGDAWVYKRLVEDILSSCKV
Sequence of Serine/threonine-protein kinase 24 (Homo sapiens) (Q9Y6E0 whole entry, looked up): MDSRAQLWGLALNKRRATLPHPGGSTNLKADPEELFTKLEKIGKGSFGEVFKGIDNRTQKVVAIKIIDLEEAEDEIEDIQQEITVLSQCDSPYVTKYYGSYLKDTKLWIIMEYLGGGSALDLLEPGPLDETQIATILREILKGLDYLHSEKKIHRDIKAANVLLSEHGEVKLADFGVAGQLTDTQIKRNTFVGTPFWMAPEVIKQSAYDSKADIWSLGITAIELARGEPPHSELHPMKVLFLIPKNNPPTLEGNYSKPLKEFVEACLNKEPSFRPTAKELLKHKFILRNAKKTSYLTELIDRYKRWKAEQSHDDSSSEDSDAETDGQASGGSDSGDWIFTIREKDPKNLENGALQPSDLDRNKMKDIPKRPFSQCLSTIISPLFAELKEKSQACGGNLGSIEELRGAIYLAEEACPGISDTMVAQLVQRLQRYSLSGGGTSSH

As for `C=CC(=O)Nc1cccc(C(=O)Nc2ccc(Nc3cc(-c4[nH]c(SC)nc4C)ccn3)cc2)c1`, the % of control is 65% in test [1] (at 1 µM) and 31% in test [1] (at 5 µM).

Compound `CC(C)(O)[C@H](F)CN1Cc2cc(NC(=O)c3cnn4cccnc34)c(N3CCOCC3)cc2C1=O` came in with a dTM in [2] of 2 K.

Consider `CCc1cc(Nc2nccc(-c3c(-c4ccc(OC)c(C(=O)Nc5c(F)cccc5F)c4)nc4ccccn34)n2)c(OC)cc1N1CCC(N2CCN(S(C)(=O)=O)CC2)CC1`, for which, in [3], the % of inhibition was 76%.

As for `COc1cc(Nc2nc(C)cc(-c3cnn4nc(OC)ccc34)n2)cc(C(F)(F)F)c1`, the % of control in test [4] stood at 100%; in [5] it was 76%.

Regarding `O=C(NOC[C@H](O)CO)c1ccc(F)c(F)c1Nc1ccc(I)cc1F`, in [6], the % of control came to 100%.

Regarding `Cn1cc(-n2cnc3c(NCc4nc5cc(Cl)c(Cl)cc5[nH]4)nc(N4CCOCC4)nc32)cn1`, in [7], the % of control was 26.9%.

Turning to `CC[C@@H]1[C@H](F)C(=O)N[C@@H]1COc1nccc2cc(C(N)=O)c(OC)cc12` [ZIMLOVISERTIB], the % of inhibition in test [8] is -1.18%.

With `CCC(=O)N1CC[C@H](Nc2ncnc3c2CN(c2cnc(OC)c(C(F)(F)F)c2)CC3)C1` [LENIOLISIB], in test [9], the IC50 is greater than 10 µM.

In test [10], `CN(C(=O)c1cnn2cccnc12)c1cc2c(cc1N1CCOCC1)C(=O)N(C[C@@H](F)C(C)(C)O)C2` registered a dTM of 1.8 K.

One may read the IC50 as the concentration that gives 50% inhibition. A higher IC50 goes with weaker potency.
